Source: the NIST ThermoML archive (doi:10.1021/je700732u)
Numbers after ± are expanded uncertainties.

What was measured:
[1] = mn = molality of the nth substance listed, in mol/kg; conditions: 298.15 K, 101 kPa, Liquid
[2] = cn = amount concentration of the nth substance listed, in mol/dm3; conditions: 298.15 K, 101 kPa, Liquid

[Cl][Cu][Cl] [copper chloride] + O
[1]
Conditions	mass density [kg/m3]
m1 = 0.0498	1003.12 ± 0.27
m1 = 0.09962	1009.1 ± 0.29
m1 = 0.1992	1020.92 ± 0.33
m1 = 0.2988	1032.58 ± 0.37
m1 = 0.498	1055.47 ± 0.46

O=S(=O)([O-])[O-].[Cu+2] [copper sulfate] + O
Conditions	mass density [kg/m3]	viscosity [mPa·s]
[1], m1 = 0.05	1005.22 ± 0.18	–
[1], m1 = 0.1	1013.29 ± 0.2	–
[1], m1 = 0.2	1029.16 ± 0.26	–
[1], m1 = 0.3	1044.87 ± 0.31	–
[1], m1 = 0.4	1060.4 ± 0.37	–
[1], m1 = 0.5	1075.78 ± 0.43	–
[2], c1 = 0.04986	–	0.9222 ± 0.023
[2], c1 = 0.09974	–	0.9516 ± 0.024
[2], c1 = 0.1995	–	1.013 ± 0.025
[2], c1 = 0.2991	–	1.083 ± 0.027
[2], c1 = 0.3987	–	1.147 ± 0.028
[2], c1 = 0.4981	–	1.223 ± 0.03

O=S(=O)([O-])[O-].[Mg+2] [magnesium sulfate] + O
Conditions	mass density [kg/m3]	viscosity [mPa·s]
[1], m1 = 0.05	1003.14 ± 0.18	–
[1], m1 = 0.1	1009.13 ± 0.19	–
[1], m1 = 0.2	1020.83 ± 0.23	–
[1], m1 = 0.3	1032.43 ± 0.27	–
[1], m1 = 0.4	1043.79 ± 0.31	–
[1], m1 = 0.5	1055.11 ± 0.35	–
[2], c1 = 0.04787	–	0.9216 ± 0.023
[2], c1 = 0.09971	–	0.9527 ± 0.024
[2], c1 = 0.1994	–	1.016 ± 0.025
[2], c1 = 0.2989	–	1.083 ± 0.027
[2], c1 = 0.3983	–	1.155 ± 0.028
[2], c1 = 0.4976	–	1.234 ± 0.03

O=S(=O)([O-])[O-].[Na+].[Na+] [sodium sulfate] + O
[1]
Conditions	mass density [kg/m3]
m1 = 0.09205	1008.69 ± 0.29
m1 = 0.2001	1021.99 ± 0.33
m1 = 0.3	1034.01 ± 0.37
m1 = 0.3999	1045.81 ± 0.42
m1 = 0.5001	1057.44 ± 0.46

OC[C@H]1O[C@@](CO)(O[C@H]2O[C@H](CO)[C@@H](O)[C@H](O)[C@H]2O)[C@@H](O)[C@@H]1O [D-sucrose] + O
[1]
Conditions	mass density [kg/m3]	viscosity [mPa·s]
m1 = 0.2	1022.17 ± 0.33	1.064 ± 0.026
m1 = 0.4	1045.26 ± 0.41	1.277 ± 0.031
m1 = 0.6	1066.44 ± 0.48	1.533 ± 0.037
m1 = 0.8	1086.04 ± 0.55	1.843 ± 0.044
m1 = 1	1104.2 ± 0.61	2.241 ± 0.053
m1 = 1.2	1121.03 ± 0.68	2.638 ± 0.062

[Cl-].[Cl-].[Mg+2] [magnesium chloride] + O
[1]
Conditions	mass density [kg/m3]
m1 = 0.09998	1004.88 ± 0.22
m1 = 0.2001	1012.54 ± 0.24
m1 = 0.4002	1027.51 ± 0.28
m1 = 0.5	1034.83 ± 0.3

[Cl-].[Na+] [sodium chloride] + O
[1]
Conditions	mass density [kg/m3]
m1 = 0.04999	999.11 ± 0.27
m1 = 0.09999	1001.16 ± 0.27
m1 = 0.1999	1005.2 ± 0.28
m1 = 0.2999	1009.2 ± 0.29
m1 = 0.4002	1013.17 ± 0.3
